Measurements published in ChEMBL document CHEMBL3046330, “Synthesis and biological activity of hydrazidehydrazones and their corresponding 3-acetyl-2,5-disubstituted-2,3-dihydro-1,3,4-oxadiazoles” (Med Chem Res, 2012).
In brackets after ≈: the same amount, converted by molar mass. Activity calls are given as the source filed them. The rule behind the calls is not given here.

Assays:
BT-549 = test: Cytotoxicity against Homo sapiens (human) BT549 cells assessed as cell viability up to 25 ug/ml after 48 hr by neutral red assay; type: functional, cell-based
Pichia kudriavzevii = test: Antifungal activity against Pichia kudriavzevii NRRL Y-7179 after 24 hr by NCCLS broth microdilution method; type: functional; settings: NRRL Y-7179, 24 h
Transcription factor Sp1 = Transcription factor Sp1 (Homo sapiens, UniProt P08047); test: Inhibition of Sp1 (unknown origin) up to 25 ug/ml by luciferase reporter gene assay
Chain of Transcription factor Sp1 (P08047 whole entry): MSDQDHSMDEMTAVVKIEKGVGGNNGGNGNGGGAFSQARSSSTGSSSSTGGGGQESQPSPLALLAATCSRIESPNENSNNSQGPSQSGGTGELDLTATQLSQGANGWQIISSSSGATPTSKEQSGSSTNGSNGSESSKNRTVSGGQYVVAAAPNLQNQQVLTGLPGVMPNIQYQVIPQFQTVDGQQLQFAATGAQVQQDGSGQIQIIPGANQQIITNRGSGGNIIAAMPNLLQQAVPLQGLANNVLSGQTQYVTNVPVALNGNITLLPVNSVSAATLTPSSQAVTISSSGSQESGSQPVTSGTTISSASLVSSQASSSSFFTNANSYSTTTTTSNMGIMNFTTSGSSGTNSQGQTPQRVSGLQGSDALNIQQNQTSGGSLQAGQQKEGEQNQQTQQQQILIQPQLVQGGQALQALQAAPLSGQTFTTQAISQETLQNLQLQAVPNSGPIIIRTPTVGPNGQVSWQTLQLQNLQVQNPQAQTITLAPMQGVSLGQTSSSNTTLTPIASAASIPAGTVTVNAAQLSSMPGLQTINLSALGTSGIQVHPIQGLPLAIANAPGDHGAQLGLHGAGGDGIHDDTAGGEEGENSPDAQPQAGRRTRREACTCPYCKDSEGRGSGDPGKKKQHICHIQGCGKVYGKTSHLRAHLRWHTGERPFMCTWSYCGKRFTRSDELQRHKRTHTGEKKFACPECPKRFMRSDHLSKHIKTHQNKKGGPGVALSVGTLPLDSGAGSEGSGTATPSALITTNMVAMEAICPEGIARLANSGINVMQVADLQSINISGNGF

KB = test: Cytotoxicity against Homo sapiens (human) KB cells assessed as cell viability up to 25 ug/ml after 48 hr by neutral red assay; type: functional, cell-based
[1] = Cytotoxicity against Sus scrofa (pig) LLC-PK11 cells assessed as cell viability up to 25 ug/ml after 48 hr by neutral red assay; type: cell-based; settings: llc-pk11, 48 h
Candida parapsilosis = test: Antifungal activity against Candida parapsilosis NRRL Y-12696 after 24 hr by NCCLS broth microdilution method; type: functional; settings: Lodderomyces parapsilosis, NRRL Y-12696, 24 h
SK-OV-3 = test: Cytotoxicity against Homo sapiens (human) SKOV3 cells assessed as cell viability up to 25 ug/ml after 48 hr by neutral red assay; type: functional, cell-based
Candida albicans [2] = test: Antifungal activity against Candida albicans ATCC 90028 after 24 hr by NCCLS broth microdilution method; type: functional; settings: ATCC 90028, 24 h
HL-60 [3] = test: Cytotoxicity against Homo sapiens (human) HL60 cells; type: cell-based
HL-60 [4] = test: Antioxidant activity in PMA-stimulated Homo sapiens (human) HL60 cells assessed as inhibition of intracellular ROS generation up to 25 ug/ml incubated for 30 min prior to PMA stimulation measured after 30 min by DCFH-DA assay relative to vehicle-treated control; type: functional, cell-based
Botrytis cinerea = test: Antifungal activity against Botryotinia fuckeliana at 0.3 to 30 uM after 48 to 72 hr by broth microdilution method; type: functional, organism-based
[5] = biological target: T1, Nitric oxide synthase, inducible (Mus musculus, UniProt P29477); test: Inhibition of iNOS in Mus musculus (mouse) RAW264.7 cells assessed as inhibition of LPS-induced nitrite production incubated for 30 min prior to LPS challenge measured after 24 hr by Griess assay; type: cell-based
T1 sequence (P29477 whole entry): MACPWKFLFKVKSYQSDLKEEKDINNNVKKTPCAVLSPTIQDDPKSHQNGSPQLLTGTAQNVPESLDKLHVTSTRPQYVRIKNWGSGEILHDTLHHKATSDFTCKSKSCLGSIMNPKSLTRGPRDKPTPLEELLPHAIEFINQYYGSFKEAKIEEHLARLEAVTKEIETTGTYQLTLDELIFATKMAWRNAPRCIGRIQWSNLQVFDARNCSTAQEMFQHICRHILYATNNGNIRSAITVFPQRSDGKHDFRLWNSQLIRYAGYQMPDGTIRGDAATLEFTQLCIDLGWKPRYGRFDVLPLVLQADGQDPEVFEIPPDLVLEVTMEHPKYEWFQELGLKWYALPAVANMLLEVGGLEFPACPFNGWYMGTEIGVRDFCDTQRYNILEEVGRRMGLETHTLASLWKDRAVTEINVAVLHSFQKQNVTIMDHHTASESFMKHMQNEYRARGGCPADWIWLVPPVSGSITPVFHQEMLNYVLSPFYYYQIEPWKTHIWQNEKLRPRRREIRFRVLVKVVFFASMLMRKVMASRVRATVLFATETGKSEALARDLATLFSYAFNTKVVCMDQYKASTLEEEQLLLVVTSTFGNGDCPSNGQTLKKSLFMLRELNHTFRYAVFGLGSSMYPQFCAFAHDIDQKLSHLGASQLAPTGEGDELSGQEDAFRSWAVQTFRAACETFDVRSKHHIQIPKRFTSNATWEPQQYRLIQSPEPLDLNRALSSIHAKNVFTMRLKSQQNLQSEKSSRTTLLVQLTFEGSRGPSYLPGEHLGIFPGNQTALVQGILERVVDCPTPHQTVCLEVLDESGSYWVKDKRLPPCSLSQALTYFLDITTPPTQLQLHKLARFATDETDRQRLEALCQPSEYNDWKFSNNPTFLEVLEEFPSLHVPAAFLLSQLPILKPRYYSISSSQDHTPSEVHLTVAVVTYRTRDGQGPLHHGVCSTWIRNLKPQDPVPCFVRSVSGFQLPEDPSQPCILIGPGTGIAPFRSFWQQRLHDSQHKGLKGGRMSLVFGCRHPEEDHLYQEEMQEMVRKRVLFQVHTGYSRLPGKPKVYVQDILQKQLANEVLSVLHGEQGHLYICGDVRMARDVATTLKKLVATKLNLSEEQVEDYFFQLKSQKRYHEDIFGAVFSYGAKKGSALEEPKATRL

Cyberlindnera jadinii = test: Antifungal activity against Cyberlindnera jadinii NRRL Y-900 after 24 hr by NCCLS broth microdilution method; type: functional; settings: Williopsis jadinii, NRRL Y-900, 24 h
Nakaseomyces glabratus = test: Antifungal activity against Candida glabrata clinical isolate after 24 hr by NCCLS broth microdilution method; type: functional
SW1353 = test: Inhibition of PMA-induced NFkappaB activity in Homo sapiens (human) SW1353 cells up to 25 ug/ml incubated for 30 min followed by PMA induction for 8 hr by luciferase reporter gene assay; type: cell-based
Candida albicans [6] = test: Antifungal activity against Candida albicans NRRL Y-12983 after 24 hr by NCCLS broth microdilution method; type: functional; settings: NRRL Y-12983, 24 h
Candida tropicalis [7] = test: Antifungal activity against Candida tropicalis NRRL Y-12968 at 2000 ug/ml by agar diffusion method; type: functional; settings: read-out: IZ
Candida albicans [8] = test: Antifungal activity against Candida albicans clinical isolate at 2000 ug/ml by agar diffusion method; type: functional; settings: read-out: IZ
Colletotrichum fragariae = test: Antifungal activity against Colletotrichum fragariae at 0.3 to 30 uM after 48 to 72 hr by broth microdilution method; type: functional, organism-based
Candida albicans [9] = test: Antifungal activity against Candida albicans clinical isolate after 24 hr by NCCLS broth microdilution method; type: functional
Vero = test: Cytotoxicity against Chlorocebus aethiops (African green monkey) Vero cells assessed as cell viability up to 25 ug/ml after 48 hr by neutral red assay; type: cell-based; settings: chlorocebus sabaeus
RAW264.7 = test: Cytotoxicity against Mus musculus (mouse) RAW264.7 cells up to 25 ug/ml; type: cell-based
SK-MEL = test: Cytotoxicity against Homo sapiens (human) SK-MEL cells assessed as cell viability up to 25 ug/ml after 48 hr by neutral red assay; type: functional, cell-based
Candida tropicalis [10] = test: Antifungal activity against Candida tropicalis NRRL Y-12968 after 24 hr by NCCLS broth microdilution method; type: functional; settings: NRRL Y-12968, 24 h
[11] = biological target: T2, Nitric oxide synthase, inducible (Mus musculus) (UniProt P29477); test: Inhibition of iNOS in Mus musculus (mouse) RAW264.7 cells assessed as inhibition of LPS-induced nitrite production up to 25 ug/ml incubated for 30 min prior to LPS challenge measured after 24 hr by Griess assay relative to vehicle-treated control; type: cell-based
T2 sequence (whole entry): T1 sequence (P29477 whole entry)

HL-60 [12] = test: Cytotoxicity against Homo sapiens (human) HL60 cells up to 25 ug/ml; type: cell-based

Structure (SMILES) | Activity (BT-549) | MIC (Pichia kudriavzevii) [µg/mL] | inhibition (INH) (Transcription factor Sp1) | Activity (KB) | Activity [1] | MIC (Candida parapsilosis) [µg/mL] | Activity (SK-OV-3) | MIC (Candida albicans [2]) [µg/mL] | inhibition (HL-60 [4]) | MIC (Cyberlindnera jadinii) [µg/mL] | MIC (Nakaseomyces glabratus) [µg/mL] | inhibition (SW1353) | MIC (Candida albicans [6]) [µg/mL] | zone of inhibition at 2000 µg/mL (Candida tropicalis [7]) [mm] | zone of inhibition at 2000 µg/mL (Candida albicans [8]) [mm] | MIC (Candida albicans [9]) [µg/mL] | Activity (Vero) | Activity (RAW264.7) | Activity (SK-MEL) | MIC (Candida tropicalis [10]) [µg/mL] | also measured
CC(=O)N1N=C(c2ccc(F)cc2)OC1c1ccccc1 (centres undefined) | inactive | 1000 (≈ 3520 µM) | Not Active | inactive | Not Active | 1000 (≈ 3520 µM) | inactive | 1000 (≈ 3520 µM) | inactive | 1000 (≈ 3520 µM) | 1000 (≈ 3520 µM) | inactive | 500 (≈ 1760 µM) | 9 | 9 | 500 (≈ 1760 µM) | Not Active | Non-toxic | inactive | 1000 (≈ 3520 µM) | IC50 (HL-60 [3]): 31.3 µg/mL (≈ 110 µM); Activity (Botrytis cinerea): inactive; IC50 [5]: > 87.9 µM; Activity (Colletotrichum fragariae): inactive
CC(=O)N1CCN(c2ccc(OCC3COC(Cn4ccnc4)(c4ccc(Cl)cc4Cl)O3)cc2)CC1 (centres undefined) [KETOCONAZOLE] |  | 62 (≈ 117 µM) |  |  |  | 125 (≈ 235 µM) |  | 62 (≈ 117 µM) |  | 62 (≈ 117 µM) | 31 (≈ 58.3 µM) |  | 125 (≈ 235 µM) |  |  | 16 (≈ 30.1 µM) |  |  |  | 62 (≈ 117 µM) | 
COc1cccc2c1C(=O)c1c(O)c3c(c(O)c1C2=O)C[C@@](O)(C(=O)CO)C[C@@H]3O[C@H]1C[C@H](N)[C@H](O)[C@H](C)O1 [DOXORUBICIN] |  |  |  |  |  |  |  |  |  |  |  |  |  |  |  |  |  |  |  |  | IC50 (HL-60 [3]): 0.16 µg/mL (≈ 0.294 µM)
COc1ccc(C2OC(c3ccc(F)cc3)=NN2C(C)=O)cc1 (centres undefined) | inactive | 500 (≈ 1590 µM) | Not Active | inactive | Not Active | 500 (≈ 1590 µM) | inactive | 500 (≈ 1590 µM) | inactive | 250 (≈ 795 µM) | 250 (≈ 795 µM) | inactive | 500 (≈ 1590 µM) | 9 | 9 | 250 (≈ 795 µM) | Not Active | Non-toxic | inactive | 500 (≈ 1590 µM) | inhibition [11]: inactive; Activity (HL-60 [12]): Non-toxic
CN(C)c1ccc(/C=C/C=N/NC(=O)c2ccc(F)cc2)cc1 | inactive | 500 (≈ 1610 µM) | Not Active | inactive | Not Active | 500 (≈ 1610 µM) | inactive | 500 (≈ 1610 µM) | inactive | 500 (≈ 1610 µM) | 500 (≈ 1610 µM) | inactive | 500 (≈ 1610 µM) | 9 | 9 | 500 (≈ 1610 µM) | Not Active | Non-toxic | inactive | 500 (≈ 1610 µM) | inhibition [11]: inactive; Activity (HL-60 [12]): Non-toxic
CC(=O)N1N=C(c2ccc(F)cc2)OC1c1ccc(N(C)C)cc1 (centres undefined) | inactive | 500 (≈ 1530 µM) | Not Active | inactive | Not Active | 1000 (≈ 3050 µM) | inactive | 500 (≈ 1530 µM) | inactive | 500 (≈ 1530 µM) | 500 (≈ 1530 µM) | inactive | 500 (≈ 1530 µM) | 9 | 9 | 250 (≈ 764 µM) | Not Active | Non-toxic | inactive | 500 (≈ 1530 µM) | Activity (Botrytis cinerea): inactive; IC50 [5]: 61.1 µM; Activity (HL-60 [12]): Non-toxic; Activity (Colletotrichum fragariae): inactive
CC(=O)N1N=C(c2ccc(F)cc2)OC1/C=C/c1ccc(N(C)C)cc1 (centres undefined) | inactive | 125 (≈ 354 µM) | Not Active | inactive | Not Active | 250 (≈ 707 µM) | inactive | 500 (≈ 1410 µM) | inactive | 250 (≈ 707 µM) | 500 (≈ 1410 µM) | inactive | 500 (≈ 1410 µM) | 9 | 9 | 500 (≈ 1410 µM) | Not Active | Non-toxic | inactive | 125 (≈ 354 µM) | inhibition [11]: inactive; Activity (HL-60 [12]): Non-toxic
CC(=O)N1N=C(c2ccc(F)cc2)OC1c1ccc(F)cc1 (centres undefined) | inactive | 500 (≈ 1650 µM) | Not Active | inactive | Not Active | 500 (≈ 1650 µM) | inactive | 500 (≈ 1650 µM) | inactive | 500 (≈ 1650 µM) | 500 (≈ 1650 µM) | inactive | 500 (≈ 1650 µM) | 9 | 9 | 500 (≈ 1650 µM) | Not Active | Non-toxic | inactive | 500 (≈ 1650 µM) | inhibition [11]: inactive; Activity (HL-60 [12]): Non-toxic
CC(=O)N1N=C(c2ccc(F)cc2)OC1c1ccc(Br)cc1 (centres undefined) | inactive | 500 (≈ 1380 µM) | Not Active | inactive | Not Active | 500 (≈ 1380 µM) | inactive | 1000 (≈ 2750 µM) | inactive | 500 (≈ 1380 µM) | 500 (≈ 1380 µM) | inactive | 500 (≈ 1380 µM) | 9 | 9 | 250 (≈ 688 µM) | Not Active | Non-toxic | inactive | 250 (≈ 688 µM) | Activity (Botrytis cinerea): inactive; IC50 [5]: > 68.8 µM; Activity (HL-60 [12]): Non-toxic; Activity (Colletotrichum fragariae): inactive
